{"source": "patent US10308938B2", "about": "“Compositions and methods to activate or inhibit toll-like receptor signaling” (priority 2014, dated 2019)", "system": "CD4^+ T cells", "test": "Anergy-related gene expression, TaqMan real-time PCR", "format": "cell-based, human", "text": "Quantification of mRNA expression levels by RT-PCR. RNA was isolated using QIAGEN RNeasy Micro Plus Kit (QIAGEN, Valencia, Calif.), following manufacturer's guidelines and converted to cDNA by reverse transcription (RT) with random hexamers and Multiscribe RT (TQMN, Reverse Transcription Reagents; Applied Biosystems, Foster City, Calif.). For mRNA gene expression assays, probes were purchased from Applied Biosystems (Table 2) and the reactions were set up following manufacturer's guidelines and run on a StepOne Real-Time PCR System (Applied Biosystems). Values are represented as the difference in Ct values normalized to β2-microglobulin for each sample as per the following formula: Relative RNA expression=(2^−dCt)×1000.\nTo examine whether TLR7 stimulation and subsequent NFAT dephosphorylation induces the expression of anergy-related genes, CD4^+ T cells were incubated for 2-16 hours with IMQ in the presence or absence of the TLR7 inhibitory sequence IRS661 and RNA was isolated to examine the hypothesis that TLR7 engagement induced expression of anergy-related genes previously described. As a control for anergy-related gene expression, CD4^+ T cells were incubated with either ionomycin and PMA or ionomycin alone. […] The effect observed in the regulation of these genes was TLR7-specific, as preincubation of CD4^+ T cells with IRS661 before IMQ treatment abrogated the increase in anergy-related gene expression."}
{"smiles": "CC(C)Cn1cnc2c(N)nc3ccccc3c21", "note": "[Imiquimod]", "values": [{"measurement": "expression of Sirt1, Itch, Cblb, Dgka, Egr2 and Egr3", "setting": "IMQ treatment, 2 hours", "value": "all of them but Egr2 showed a significant upregulation"}, {"measurement": "expression of anergy-related genes", "setting": "NFAT1-deficient cells vs non-target transduced, IMQ 2 hours", "value": "failed to upregulate"}, {"measurement": "expression of 12 anergy-related genes", "setting": "compared to control and PMA and ionomycin", "value": "Ten of the 12 anergy-related genes examined were significantly upregulated"}]}
